Experimental findings from patent publication US20060251638A1, “Cytoprotection through the use of hif hydroxylase inhibitors” (priority 2003, published 2006) are described below.

For assay [1], the system named is gene encoding adrenomedullin. The assay can be described thus: Adrenomedullin gene expression in Hep3B cells (microarray). Format: cell-based, human. The conditions noted are these: 25 μM compound, 6 hrs, average of two determinations. How it is done: Hep3B cells (ATCC No. HB-8064) were grown in DMEM containing 8% fetal bovine serum. Hep3B cells were seeded into 6-well culture dishes at ˜500,000 cells per well. After 8 hours, the media was changed to DMEM containing 0.5% fetal bovine serum and the cells were incubated for an additional 16 hours. Compound A, compound B, compound C, compound G, or compound H was added to the cells (25 μM final concentration) and the cells were incubated for various times. Control cells were incubated with vehicle (DMSO) with no compound treatment. Harvested cells were assessed for cell viability (GUAVA), or added to RNA extraction buffer (RNeasy, Qiagen) and stored at −20° C. for subsequent RNA purification.
RNA was precipitated in 0.3 M sodium acetate (pH 5.2), 50 ng/ml glycogen, and 2.5 volumes of ethanol for one hour at −20° C. Samples were centrifuged and pellets were washed with cold 80% ethanol, dried, and resuspend in water. Double stranded cDNA was synthesized using a T7-(dT)24 first strand primer (Affymetrix, Inc., Santa Clara Calif.) and the SUPERSCRIPT CHOICE system (Invitrogen) according to the manufacturer's instructions. The final cDNA was extracted with an equal volume of 25:24:1 phenol:chloroform:isoamyl alcohol using a PHASE LOCK GEL insert (Brinkman, Inc., Westbury N.Y.). The aqueous phase was collected and cDNA was precipitated using 0.5 volumes of 7.5 M ammonium acetate and 2.5 volumes of ethanol. Alternatively, cDNA was purified using the GENECHIP sample cleanup module (Affymetrix) according to the manufacturer's instructions.
Biotin-labeled cRNA was synthesized from the cDNA in an in vitro […] (IVT) reaction using a BIOARRAY HighYield RNA transcript labeling kit (Enzo Diagnostics, Inc., Farmingdale N.Y.) according to the manufacturer's instructions. Final labeled product was purified and fragmented using the GENECHIP sample cleanup module (Affymetrix) according to the manufacturer's instructions.
Hybridization cocktail was prepared by bringing 5 μg probe to 100 μl in 1× hybridization buffer (100 mM MES, 1 M [Na^+], 20 mM EDTA, 0.01% Tween 20), 100 μg/ml herring sperm DNA, 500 μg/ml acetylated BSA, 0.03 nM contol oligo B2 (Affymetrix), and 1× GENECHIP eukaryotic hybridization control (Affymetrix). The cocktail was sequentially incubated at 99° C. for 5 minutes and 45° C. for 5 minutes, and then centrifuged for 5 minutes. The […] array (Affymetrix) was brought to room temperature and then prehybridized with 1× hybridization buffer at 45° C. for 10 minutes with rotation. The buffer was then replaced with 80 μl hybridization cocktail and the array was hybridized for 16 hours at 45° C. at 60 rpm with counter balance. Following hybridization, arrays were washed once with 6×SSPE, 0.1% Tween 20, and then washed and stained using R-phycoerythrin-conjugated streptavidin (Molecular Probes, Eugene Oreg.), goat anti-streptavidin antibody (Vector Laboratories, Burlingame Calif.), and a GENECHIP Fluidics Station 400 instrument (Affymetrix) according to the manufacturer's EukGE-WS2v4 protocol (Affymetrix). Arrays were analyzed using a GENEARRAY scanner (Affymetrix) and Microarray Suite software (Affymetrix).
RNA quality was monitored by capillary electrophoresis (Agilent Bioanalyzer). […] Array performance was analyzed with Affymetrix MicroArray Suite (MAS) software and individual probe sets were assigned “present”, “marginal, and “absent” calls according to software defaults. […]

Assay [2] concerns Human umbilical vein endothelial cells (HUVEC). The assay can be described thus: TNF-α induced apoptosis in HUVEC (Annexin V immunostaining, morphology). Format: cell-based. As for the experimental part:
Human umbilical vein endothelial cells (HUVEC) were plated in DMEM containing 0.5% fetal bovine serum that was supplemented with 1 ng/ml of vascular endothelial growth factor. After overnight culture, the cells were washed with PBS and incubated for an additional 24 hours in DMEM containing 0.5% fetal bovine serum and either vehicle control (DMSO) or 25 μM of compound G. The cell cultures were subsequently washed and re-cultured with DMEM containing 0.5% fetal bovine serum containing 20 ng/ml TNF-α for an additional 4 or 8 hours. The cells were then harvested and immunostained with either FITC-conjugated isotype control or FITC-conjugated Annexin V for identification and determination of cells undergoing apoptosis. (Koopman et al. (1994) Blood 84:1415-1420.) Annexin V preferentially binds negatively charged phospholipids, like phosphatidylserine, which are associated with plasma membrane changes in apoptotic cells. Annexin V binding allows for the identification and quantitation of cells at early stages of apoptosis, when apoptosis occurs in the absence of DNA fragmentation, and the discrimination between cell death associated with apoptosis or with necrosis.
In replicate HUVEC cultures treated as described above, light micrographs were taken of cells treated with vehicle control (DMSO) and compound G following stimulation with 20 ng/ml TNF-α for 4 and 8 hours (FIG. 6). […]

In assay [3] the test system is gene encoding adrenomedullin. The experiment in a line: Adrenomedullin gene expression in peripheral blood mononuclear cells. The format is cell-based. The note with it: human PBMCs, 5 μM, 20 hours. As for the experimental part: Adrenomedullin gene expression following compound treatment was also examined in peripheral blood mononuclear cells (PBMCs). Whole human blood was collected and processed immediately. The blood was diluted with an equal volume of phosphate buffered saline. FICOLL-PAQUE PLUS (Amersham Biosciences) was layered under the blood and the tubes were centrifuged at 350×g for 12 minutes at room temperature. PBMCs formed a visible layer in the middle layer of the tube. PBMCs were carefully removed from the tube, diluted with 3 volumes of phosphate buffered saline, and pelleted by centrifugation for 5 minutes at 300×g at room temperature. PBMCs were cultured in DMEM containing 2.5% fetal bovine serum and treated with either 0.25% DMSO or compound G (5 μM) in 0.25% DMSO for 20 hours. The cells were then pelleted and stored at −20° C. in RLT lysis buffer (Qiagen Inc., Valencia, Calif.) containing 1% beta-mercaptoethanol. Total RNA was isolated using the RNeasy kit (Valencia, Calif.).

The subject of another assay is HO-1 protein. The experiment in a line: HO-1 protein levels in H9c2 cardiomyocytes by ELISA. Format: cell-based, rat. The conditions noted are these: H9c2, 100 μM compound; control 2.86. As for the experimental part:
In another series of experiments, H9c2 rat cardiomyocytes were treated with either vehicle control or with various concentrations (1 μM, 3 μM, 10 μM, 30 μM, and 100 μM) of compound C or compound G. Cell lysates were harvested and HO-1 protein levels determined by ELISA according to the manufacturer's instructions (cat # EKS-810; Stressgen, Victoria, BC, Canada). Data shown below in Table 4 represents values obtain with 100 μM compound.

As for `O=C(O)CNC(=O)c1ncc2cc(Oc3ccccc3)ccc2c1O` [Compound G, [(4-Hydroxy-7-phenoxy-isoquinoline-3-carbonyl)-amino]-acetic acid], in assay [1], the “Adrenomedullin gene expression, fold-increase above non-treated control” value is 3.278 fold. In addition, the “annexin V immunostaining (mean fluorescence intensity) versus TNF-α alone” value in assay [2] (25 μM for 24 hours prior to 20 ng/ml TNF-α for 4 or 8 hours) is listed as “reduced annexin V immunostaining”. The “HUVEC morphology after TNF-α (light micrographs)” value in assay [2] (25 μM prior to 20 ng/ml TNF-α for 4 and 8 hours) was “viable and normal morphology”. In addition, the “increase in expression of the gene encoding adrenomedullin compared to non-treated control cells” value in assay [3] is given as “greater than 3.518 fold”. In the assay on HO-1 protein, the “HO-1 (ng/mg total cell protein)” value is recorded as 28.54 ng/mg total cell protein.
